From patent EP1310247A1 (priority 1997, dated 1999)

What was measured:
Male Swiss-Webster mice [1] = test: Locomotor activity: stimulant and depressant effects (horizontal distance); type: in vivo
dogs = test: Dosage required to raise mean arterial pressure (MAP) by 10%; type: in vivo; conditions: experimentally determined
Description: Nasal airway pressure was measured using a Validyne pressure transducer (Validyne Engineering, Northridge, CA) with a 2.25 cm H2O range membrane connected to a multipen recorder (Grass Instruments, Quincy, MA). Air was passed through an in-line direct measure flow meter (Gilmont Instruments, Barrington, IL) connected to the nasal opening cannula. Pressure was measured in the line with a constant flow rate (150 ml/min) of air. Drugs were directly injected into the jugular vein using a 30 gauge needle. All injections were of a constant 0.1 ml volume. In the congestion challenged groups congestion was achieved by an intranasal administration of histamine (50 mM, 0.02 ml/nostril). The histamine was expelled after 2 minutes with a short nasal cannula airflow and subsequent enantiomeric drug doses were directly injected into the jugular vein. The dosage chosen for each drug was the amount needed to increase the mean arterial pressure (MAP) of the animal by 10%; this dosage served as the "100%" dose for the initial nasal airway studies. […] The dosage required for rats was calculated by proportionately adjusting the experimentally determined dog dosage to account for the lesser weight of the rats.

Sprague Dawley rats [2] = test: Nasal airway pressure / resistance in anesthetized rats, normal and histamine-challenged; type: in vivo; conditions: 75% dose
Male Swiss-Webster mice [3] = test: H1 antihistamine (triprolidine) interaction study, locomotor activity; type: in vivo; conditions: pretreatment with 0.01, 0.1, or 1.0 mg/kg triprolidine 20 minutes before
Description: H1 antihistamine interaction studies. […] The mice were then immediately placed in the activity-testing apparatus for a 2 hour session. […] Eight mice were tested for each triprolidine/sympathomimetic combination.
The dose-effect data were considered in 1-way analysis of variance, and planned individual comparisons were conducted between each dose and the saline control group.

Sprague Dawley rats [4] = test: Mean arterial blood pressure after 75% dose in rats; conditions: compared with (+)-ephedrine
α2-Receptor = type: binding, mongrel dogs

| Compound | Dosage required to raise MAP by 10%, Dog (dogs) [µg/kg] | interaction with triprolidine pretreatment (horizontal movement) (Male Swiss-Webster mice [3]) | other results |
| --- | --- | --- | --- |
| CC(N)Cc1ccccc1 (single isomer, unassigned; (+)) [(+)-amphetamine] |  |  | Locomotor stimulant effects, time course (Male Swiss-Webster mice [1]; 2-hour session after i.p. injection, result in words): dose- and time-dependent increase in the distance traversed |
| CN[C@H](C)[C@@H](O)c1ccccc1 [(+)-ephedrine] | 200 | no drug interaction is apparent | effect on normal airway decongestion (Sprague Dawley rats [2]): the same efficacious effect on normal airway decongestion |
| CN[C@@H](C)[C@@H](O)c1ccccc1 [(+)-pseudoephedrine] | 200 | increased horizontal movement is observed |  |
| CN[C@@H](C)[C@H](O)c1ccccc1 [(-)-ephedrine] | 100 | increased horizontal movement is observed | increase in blood pressure (Sprague Dawley rats [4]): slightly greater (though significant) increase in blood pressure than (+)-ephedrine; effect on normal airway decongestion (Sprague Dawley rats [2]): the same efficacious effect on normal airway decongestion |
| CNC[C@H](O)c1cccc(O)c1 [(-)-phenylephrine] | 10 |  |  |
| CNC[C@H](O)c1ccc(O)c(O)c1 [Epinephrine] |  |  | displacement of bound p-iodoclonidine (α2-Receptor): easily displaced all bound p-iodoclonidine |
| Cc1ccc(/C(=C\CN2CCCC2)c2ccccn2)cc1 [triprolidine] |  |  | effect on horizontal distance (Male Swiss-Webster mice [1]; mouse, in vivo): failed to affect horizontal distance; effect on locomotion (Male Swiss-Webster mice [1]; triprolidine alone, 50 and 100 mg/kg, beginning within 10 minutes, lasting 30 to 40 minutes): Dose-dependent depression of locomotion |
